Measurements taken from PubChem BioAssay AID1645868 (Buhrlage Lab, Dana-Farber Cancer Institute and Novartis …, 2021).
Calls of active or inactive are those of the source.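 Rule for the calls: active = maximal percent inhibition of the deubiquitinase OTUD3 of at least 30% across the tested doses; inactive = the rest.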

What follows are compounds tested against OTU domain-containing protein 3 (Homo sapiens) (UniProt Q5T2D3) (assay: Validation of screening hits, potency titration, in vitro enzymatic, OTU domain-containing protein 3 DUB inhibitors (AID 1645868)). Conditions: purified OTUD3, ubiquitin-rhodamine cleavage fluorescence, 2 h.
Sequence of OTU domain-containing protein 3 (Homo sapiens) (Q5T2D3 whole entry, looked up, the tested form may be a part): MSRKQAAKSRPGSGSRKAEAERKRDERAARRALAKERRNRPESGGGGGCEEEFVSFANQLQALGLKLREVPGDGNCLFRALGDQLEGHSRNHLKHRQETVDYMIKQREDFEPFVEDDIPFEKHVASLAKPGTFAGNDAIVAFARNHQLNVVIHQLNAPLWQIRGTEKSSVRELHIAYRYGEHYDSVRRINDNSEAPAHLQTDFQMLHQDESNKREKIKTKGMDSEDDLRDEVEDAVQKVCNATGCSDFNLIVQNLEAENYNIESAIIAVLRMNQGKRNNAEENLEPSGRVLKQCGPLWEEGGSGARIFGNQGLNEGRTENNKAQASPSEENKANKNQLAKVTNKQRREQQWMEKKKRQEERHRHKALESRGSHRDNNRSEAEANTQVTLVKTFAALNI
For `O=C(Nc1ncc2c(n1)-c1ccccc1CC2)C1CC1`, the IC50 was 35.9 µM.
`COc1ccc(OC)c(C2CC(=O)Nc3n[nH]c(-c4ccccc4)c32)c1` (configuration not stated) was tested, and the IC50 was 37.8 µM.
With `O=C(NCc1nc(-c2ccc3c(c2)[nH]c(=O)n3C2CCCC2)no1)c1ccccc1` the IC50 was > 50 µM (inactive).
For `COc1ccccc1CNC(=O)c1c(O)c2cnn(-c3cccc(C)c3)c2[nH]c1=O`, the IC50 was > 50 µM (inactive).
With `Cc1ccc(NC(=O)c2c3c(nc4ccccc24)CCCCC3)c(C)c1` the IC50 was > 50 µM (inactive).
`O=C(NCc1ccc(CN2CCCC2)cc1)c1cc2ccccc2[nH]c1=O` was tested, and the IC50 was > 50 µM (inactive).
For `Cc1cccc(-c2noc(CCn3c(=O)[nH]c4ccccc4c3=O)n2)c1`, the IC50 was > 50 µM (inactive).
`Cc1noc(NS(=O)(=O)c2ccc(NC(=O)CSc3ccc4ccccc4c3)cc2)c1C` was tested, and the IC50 was > 50 µM (inactive).
For `CN(C)C(=O)CSc1nnc(-c2cccc(Cl)c2)n1-c1ccc(Cl)c(C(F)(F)F)c1`, the IC50 was > 50 µM (inactive).
For `COC(=O)c1sccc1NC(=O)COc1ccsc1C(=O)OC`, the IC50 was > 50 µM (inactive).
For `COc1cc(-c2ccno2)ccc1S(=O)(=O)Nc1ccccc1Cl`, the IC50 was > 50 µM (inactive).
In the case of `COc1cccc(/C=C/C(=O)Nc2ccc(C)c(Cl)c2)c1`, the IC50 is reported as 45.5 µM.
In the case of `Cc1nc(SCC#N)c2oc3ccccc3c2n1`, the IC50 is reported as > 50 µM (inactive).
`O=C1/C(=C/c2cn(-c3ccccc3)nc2-c2ccc3c(c2)OCCO3)Cc2ccccc21` was tested, and the IC50 was > 50 µM (inactive).
In the case of `O=C(Cn1ncc2c(N3CCCCCC3)ncnc21)NCc1ccccc1`, the IC50 is reported as > 50 µM (inactive).
For `NC(=O)c1nc(-c2cccc(F)c2)nc2c1[nH]c(=O)n2C1CCCCC1`, the IC50 was > 50 µM (inactive).
`CCCCc1nc2sc3c(SCC(=O)NCc4ccccc4)ncnc3c2c2c1CCC2` was tested, and the IC50 was > 50 µM (inactive).
`Cc1ccc2c(c1)c(=O)c(C(=O)c1ccccc1)cn2CC(=O)Nc1ccccc1` showed an IC50 of 31.5 µM.
`N#Cc1cccc(NC(=O)Cn2cccc(-c3nc(-c4ccccc4)no3)c2=O)c1` was tested, and the IC50 was > 50 µM (inactive).
Work on `O=C(Cc1noc2ccccc12)NCC(=O)Nc1ccc(Cl)cc1` yielded an IC50 of 22.2 µM.
With `CCOC(=O)Nc1ccc(N2CCn3c(nc4ccccc43)C2)cc1OC` the IC50 was > 50 µM (inactive).
In the case of `O=C(Cn1cncc(-c2nc(-c3ccccc3)cs2)c1=O)NC1CCCC1`, the IC50 is reported as > 50 µM (inactive).
`Cc1c(CC(=O)N2CCN(c3ncccn3)CC2)c(=O)oc2cc(O)ccc12` showed an IC50 of 34.1 µM.
`NC(=O)c1nnn(-c2ccc(NC(=O)c3ccc(F)c(F)c3)cc2)n1` was tested, and the IC50 was 20.3 µM.
For `COc1cc([C@@H]2c3cc4c(cc3C[C@@H]3COC(=O)[C@H]32)OCO4)cc(OC)c1OC`, the IC50 was 20.5 µM.
For `Cn1cc2cccc(NC(=O)c3ccc(F)cc3)c2n1`, the IC50 was > 50 µM (inactive).
`CC1=C(c2ccc(Cl)cc2)S(=O)(=O)NC1=NCC(=O)Nc1ccc(F)cc1` was tested, and the IC50 was > 50 µM (inactive).
`COc1cc(Cl)ccc1C(=O)Nc1cccc(-n2cnnn2)c1C` showed an IC50 of 16.3 µM.
`Cc1ccc2c(c1)N(Cc1nc(-c3ccc(F)cc3)no1)C(=O)CO2` was tested, and the IC50 was > 50 µM (inactive).
For `Cc1cc(Cl)c2c(c1)[C@]1(C(=O)N2)N2CCC[C@H]2[C@@H](C(=O)c2cc3ccccc3o2)[C@]12C(=O)Nc1ccccc12`, the IC50 was > 50 µM (inactive).
Compound `O=C(Nc1cccc2ccccc12)C1CCCN(S(=O)(=O)Cc2ccccc2)C1` (configuration not stated) has an IC50 of 40.5 µM.
For `COc1ccc(C(=O)CSc2ccc3nnc(CCNC(=O)c4ccc(OC)cc4)n3n2)cc1`, the IC50 was > 50 µM (inactive).
For `CN1C(=O)[C@@]23C[C@]4([C@@]56C[C@]78SS[C@](CO)(C(=O)N7[C@@H]5Nc5ccccc56)N(C)C8=O)c5ccccc5N[C@@H]4N2C(=O)[C@]1(CO)SS3`, the IC50 was > 50 µM (inactive).
In the case of `CS(=O)(=O)N1CCc2cc(C(=O)Nc3ccc(Cc4ccncc4)cc3)ccc21`, the IC50 is reported as > 50 µM (inactive).
`Cc1ccc2nc(CNC(=O)c3ccccc3-c3nc(-c4ccc(F)cc4)no3)[nH]c2c1` gave an IC50 of 39.9 µM.
`Cc1cccc(-n2cnc(C(=O)NCc3ccc(F)cc3)c2)n1` was tested, and the IC50 was > 50 µM (inactive).
In the case of `O=C(C1CCCN(S(=O)(=O)N2CCCCCC2)C1)N1CCN(c2ccccc2)CC1` (configuration not stated), the IC50 is reported as > 50 µM (inactive).
